From ChEMBL document CHEMBL5584338, “Design, Synthesis, and Biological Evaluation of 5-Amino-4-fluoro-1H-benzo[d]imidazole-6-carboxamide Derivatives as Novel and Potential MEK/RAF Complex Inhibitors Based on the "Clamp" Strategy” (J Med Chem, 2024)
Calls of active or inactive are those of the source. The calls are words filed in the database; no cut-off is given here.

Key:
[1] = tested on: MIA PaCa-2; assay: Antiproliferative activity against human MIA PaCa-2 cells harboring KRAS G12C mutant at 0.1 uM incubated for 72 hrs by CCK8 assay relative to control; assay type: functional
[2] = tested on: HCT-116; assay: Antiproliferative activity against human HCT-116 cells harboring KRAS G13D mutant at 1 uM incubated for 72 hrs by CCK8 assay relative to control; assay type: functional
[3] = tested on: MIA PaCa-2; assay: Antiproliferative activity against human MIA PaCa-2 cells harboring KRAS G12C mutant incubated for 72 hrs by CCK8 assay; assay type: functional, cell-based; conditions: MIA PaCa-2, 72 h
[4] = biological target: T1, Serine/threonine-protein kinase B-raf (Homo sapiens, UniProt P15056); assay: Inhibition of BRAF (unknown origin)
T1 sequence (P15056 whole entry): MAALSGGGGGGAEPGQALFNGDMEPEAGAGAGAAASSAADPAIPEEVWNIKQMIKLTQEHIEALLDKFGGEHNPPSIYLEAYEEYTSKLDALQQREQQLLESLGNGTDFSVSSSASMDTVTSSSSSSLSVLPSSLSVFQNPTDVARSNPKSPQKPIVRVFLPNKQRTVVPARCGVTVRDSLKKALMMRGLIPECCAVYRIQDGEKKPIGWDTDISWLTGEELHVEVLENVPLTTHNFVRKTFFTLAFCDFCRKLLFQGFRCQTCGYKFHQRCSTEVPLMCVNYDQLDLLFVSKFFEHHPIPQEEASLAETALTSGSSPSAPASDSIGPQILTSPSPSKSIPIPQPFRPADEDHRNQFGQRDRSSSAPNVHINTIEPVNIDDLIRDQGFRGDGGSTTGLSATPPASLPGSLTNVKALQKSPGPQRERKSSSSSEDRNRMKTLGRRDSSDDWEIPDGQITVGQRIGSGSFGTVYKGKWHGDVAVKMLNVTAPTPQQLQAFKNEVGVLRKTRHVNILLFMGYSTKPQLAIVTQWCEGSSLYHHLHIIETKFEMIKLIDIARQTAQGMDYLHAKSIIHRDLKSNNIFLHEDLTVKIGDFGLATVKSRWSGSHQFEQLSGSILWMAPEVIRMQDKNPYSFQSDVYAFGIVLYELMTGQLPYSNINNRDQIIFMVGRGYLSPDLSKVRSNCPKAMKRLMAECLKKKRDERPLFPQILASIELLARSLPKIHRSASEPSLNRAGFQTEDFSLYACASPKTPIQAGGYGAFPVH

[5] = biological target: Dual specificity mitogen-activated protein kinase kinase 1 (Homo sapiens, UniProt Q02750); assay: Inhibition of MEK1 (unknown origin) assessed as remaining activity at 0.1 uM relative to control
Sequence of Dual specificity mitogen-activated protein kinase kinase 1 (Q02750 whole entry): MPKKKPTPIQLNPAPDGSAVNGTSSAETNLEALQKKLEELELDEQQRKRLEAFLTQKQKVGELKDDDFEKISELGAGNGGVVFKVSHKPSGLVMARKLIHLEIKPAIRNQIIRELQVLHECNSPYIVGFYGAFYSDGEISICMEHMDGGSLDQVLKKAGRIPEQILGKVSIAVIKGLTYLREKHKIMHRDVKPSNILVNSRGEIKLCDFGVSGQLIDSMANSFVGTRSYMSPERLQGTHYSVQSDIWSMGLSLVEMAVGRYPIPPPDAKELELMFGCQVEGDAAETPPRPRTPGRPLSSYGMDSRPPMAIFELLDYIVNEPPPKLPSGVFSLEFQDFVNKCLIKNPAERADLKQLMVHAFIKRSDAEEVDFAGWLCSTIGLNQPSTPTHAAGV

[6] = Antiproliferative activity against rat H9c2 cells incubated for 72 hrs by CCK8 assay; assay type: toxicity, cell-based
[7] = biological target: T2, Dual specificity mitogen-activated protein kinase kinase; MEK1/2 (Homo sapiens) (UniProt P36507+Q02750); assay: Inhibition of MEK phosphorylation in human MIA PaCa-2 cells upto 1 uM incubated for 4 hrs by Western blot analysis; assay type: cell-based
T2 sequence (P36507 whole entry, looked up): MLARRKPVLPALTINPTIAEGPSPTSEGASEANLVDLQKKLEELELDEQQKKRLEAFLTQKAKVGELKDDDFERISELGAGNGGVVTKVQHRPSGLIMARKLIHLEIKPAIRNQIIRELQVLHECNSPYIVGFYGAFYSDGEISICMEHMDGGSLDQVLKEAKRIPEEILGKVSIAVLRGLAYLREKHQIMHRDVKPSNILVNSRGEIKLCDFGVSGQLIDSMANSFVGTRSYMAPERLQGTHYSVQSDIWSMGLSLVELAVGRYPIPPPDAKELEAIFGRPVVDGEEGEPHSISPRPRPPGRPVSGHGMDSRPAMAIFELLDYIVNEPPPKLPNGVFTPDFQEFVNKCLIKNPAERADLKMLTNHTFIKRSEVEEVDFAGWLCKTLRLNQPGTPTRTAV
T2 sequence (Q02750 whole entry, looked up): as the sequence (Q02750 whole entry) above

[8] = biological target: T2, Dual specificity mitogen-activated protein kinase kinase; MEK1/2 (Homo sapiens); assay: Inhibition of MEK phosphorylation in human MIA PaCa-2 cells at lower concentration incubated for at least 48 hrs by Western blot analysis; assay type: cell-based
[9] = tested on: MIA PaCa-2; assay: Stabilization of MEK1/2/BRAF complex in human MIA PaCa-2 cells at 100 nM incubated for 4 hrs by co-immunoprecipitation method; assay type: cell-based
[10] = biological target: T3, Serine/threonine-protein kinase A-Raf (Homo sapiens) (UniProt P10398); assay: Binding affinity to ARAF (unknown origin) at 1 uM by kinase profiling analysis
T3 sequence (whole entry): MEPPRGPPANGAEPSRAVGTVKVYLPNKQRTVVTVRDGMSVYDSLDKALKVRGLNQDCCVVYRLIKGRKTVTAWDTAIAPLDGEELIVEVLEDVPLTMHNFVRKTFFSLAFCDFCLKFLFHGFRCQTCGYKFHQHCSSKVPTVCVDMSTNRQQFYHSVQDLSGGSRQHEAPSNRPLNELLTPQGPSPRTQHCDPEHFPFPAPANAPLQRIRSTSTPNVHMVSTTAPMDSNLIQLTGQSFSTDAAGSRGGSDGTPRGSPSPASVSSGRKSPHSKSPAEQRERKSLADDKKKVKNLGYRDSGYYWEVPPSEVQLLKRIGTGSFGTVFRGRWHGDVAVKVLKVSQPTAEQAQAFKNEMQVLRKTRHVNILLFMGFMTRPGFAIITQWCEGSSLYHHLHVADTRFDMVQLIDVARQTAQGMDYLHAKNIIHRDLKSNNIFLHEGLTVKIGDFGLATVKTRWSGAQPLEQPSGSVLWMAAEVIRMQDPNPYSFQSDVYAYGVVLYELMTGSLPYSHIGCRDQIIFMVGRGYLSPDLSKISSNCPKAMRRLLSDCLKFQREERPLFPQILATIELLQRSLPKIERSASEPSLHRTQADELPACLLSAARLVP

[11] = biological target: T1, Serine/threonine-protein kinase B-raf; assay: Inhibition of BRAF (unknown origin) at 1 uM by kinase profiling analysis
[12] = species on record: Homo sapiens; assay: Inhibition of BRAF […] mutant (unknown origin) at 1 uM by kinase profiling analysis
[13] = biological target: RAF proto-oncogene serine/threonine-protein kinase (Homo sapiens) (UniProt P04049); assay: Binding affinity to CRAF (unknown origin) at 1 uM by kinase profiling analysis
Sequence of RAF proto-oncogene serine/threonine-protein kinase (Homo sapiens) (P04049 whole entry): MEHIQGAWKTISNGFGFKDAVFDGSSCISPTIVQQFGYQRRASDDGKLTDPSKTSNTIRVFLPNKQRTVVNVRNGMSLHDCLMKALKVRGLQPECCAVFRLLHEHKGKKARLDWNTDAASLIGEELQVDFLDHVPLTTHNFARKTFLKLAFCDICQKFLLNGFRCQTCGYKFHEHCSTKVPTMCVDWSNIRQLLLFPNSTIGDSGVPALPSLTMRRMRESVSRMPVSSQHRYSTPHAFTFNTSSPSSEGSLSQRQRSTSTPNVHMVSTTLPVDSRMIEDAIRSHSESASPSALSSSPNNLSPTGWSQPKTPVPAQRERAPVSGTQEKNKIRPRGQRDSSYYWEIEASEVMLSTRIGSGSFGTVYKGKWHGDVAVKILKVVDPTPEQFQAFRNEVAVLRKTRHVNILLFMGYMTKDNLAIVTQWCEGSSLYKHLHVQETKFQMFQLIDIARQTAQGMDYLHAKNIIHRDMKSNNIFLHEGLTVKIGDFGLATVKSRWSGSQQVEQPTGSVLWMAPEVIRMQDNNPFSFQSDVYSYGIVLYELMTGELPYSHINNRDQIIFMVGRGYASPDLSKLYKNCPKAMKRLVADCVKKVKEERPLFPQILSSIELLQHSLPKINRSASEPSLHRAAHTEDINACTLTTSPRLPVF

[14] = tested on: MIA PaCa-2; assay: Inhibition of colony formation in human MIA PaCa-2 cells incubated for 10 days by crystal violet staining based analysis; assay type: functional, cell-based; conditions: dose 0.01-1 µM, time 10.0 day
[15] = tested on: MIA PaCa-2; assay: Induction of apoptosis in human MIA PaCa-2 cells assessed as increase in cleaved caspase-3 level upto 1 uM incubated for 24 hrs by Western blot analysis; assay type: functional, cell-based
[16] = tested on: MIA PaCa-2; assay: Induction of apoptosis in human MIA PaCa-2 cells assessed as early apoptotic cells at 0.05 uM incubated for 24 hrs by Annexin V-FITC/PI staining based flow cytometry (reference value: 5.02 %); assay type: functional
[17] = tested on: MIA PaCa-2; assay: Induction of apoptosis in human MIA PaCa-2 cells assessed as early apoptotic cells at 0.25 uM incubated for 24 hrs by Annexin V-FITC/PI staining based flow cytometry (reference value: 5.02 %); assay type: functional
[18] = tested on: MIA PaCa-2; assay: Induction of apoptosis in human MIA PaCa-2 cells assessed as early apoptotic cells at 1 uM incubated for 24 hrs by Annexin V-FITC/PI staining based flow cytometry (reference value: 5.02 %); assay type: functional
[19] = tested on: MIA PaCa-2; assay: Induction of apoptosis in human MIA PaCa-2 cells assessed as early apoptotic cells at 5 uM incubated for 24 hrs by Annexin V-FITC/PI staining based flow cytometry (reference value: 5.02 %); assay type: functional
[20] = tested on: MIA PaCa-2; assay: Induction of apoptosis in human MIA PaCa-2 cells assessed as late apoptotic cells at 0.05 uM incubated for 24 hrs by Annexin V-FITC/PI staining based flow cytometry (reference value: 6.90 %); assay type: functional
[21] = tested on: MIA PaCa-2; assay: Induction of apoptosis in human MIA PaCa-2 cells assessed as late apoptotic cells at 1 uM incubated for 24 hrs by Annexin V-FITC/PI staining based flow cytometry (reference value: 6.90 %); assay type: functional
[22] = tested on: HCT-116; assay: Induction of cell cycle arrest at G0/G1 phase in human HCT-116 cells at 0.1 to 2.5 uM incubated for 24 hrs by PI/RNase staining based flow cytometry (reference value: 61.35 %); assay type: functional; conditions: dose 0.1-2.5 µM
[23] = Half life in Sprague-Dawley rat at 5 mg/kg, iv; assay type: ADME, organism-based; conditions: in vivo
[24] = tested on: HCT-116; assay: Antitumor activity against human HCT-116 cells harboring KRAS G13D mutant xenografted in NU/NU mouse assessed as tumor growth inhibition administered intravenously 5 times a week for 16 days; assay type: functional, cell-based; conditions: dose 15-30 mg/kg, route iv, time 16.0 day
[25] = Toxicity in BALB/c mouse xenografted with […] harboring KRAS G12D mutant assessed as animal death at 5 to 30 mg/kg, iv administered 5 times a week for 12 days; assay type: organism-based, C-26; conditions: in vivo, 288 h, dose 5-30 mg/kg, time 12 day
[26] = Toxicity in NU/NU mouse xenografted with human HCT-116 cells harboring KRAS G13D mutant assessed as body weight change at 15 to 30 mg/kg, iv administered 5 times a week for 16 days; assay type: organism-based; conditions: in vivo, 384 h, dose 15-30 mg/kg, time 16 day
[27] = tested on: Mitogen-activated protein kinase 1/3 (ERK1/2) (Homo sapiens); assay: Inhibition of ERK phosphorylation in human MIA PaCa-2 cells upto 1 uM incubated for 4 hrs by Western blot analysis
[28] = tested on: Mitogen-activated protein kinase 1/3 (ERK1/2) (Homo sapiens); assay: Inhibition of ERK phosphorylation in human MIA PaCa-2 cells at lower concentration incubated for at least 48 hrs by Western blot analysis

With `CCNS(=O)(=O)Nc1cccc(Cn2cnc3c(F)c(Nc4ccc(C5CC5)cc4F)c(C(=O)NOCCO)cc32)c1F` the inhibition at 0.1 µM [1] was 85%, the inhibition at 1 µM [2] was 61.5% and the IC50 [3] was 11 nM. The IC50 [4] was 3 nM, the Activity [5] was 25% and the IC50 at 72 h [6] was greater than 50000 nM. For the same compound, the inhibition [7] was “Active”, the inhibition [8] was “Active” and the Activity [9] was “Active”. The Activity [10] was “Active”, the inhibition [11] was “Active” and the inhibition [12] was “Active”. The Activity [13] was “Active”, the inhibition [14] was “Dose-Dependent Effect” and the Activity [15] was “Active”. For the same compound, the Activity [16] was 10.7%, the Activity [17] was 30.9% and the Activity [18] was 32.3%. For the same compound, the Activity [19] was 42.1%, the Activity [20] was 6.59% and the Activity [21] was 8.21%. For the same compound, the Activity [22] was 79.63%, the half-life [23] was 55.2 min and the inhibition [24] was “Active”. For the same compound, the Activity [25] was “Non-Toxic”, the Activity [26] was “Non-Toxic” and the inhibition [27] was “Active”. For the same compound, the inhibition [28] was “Active”.
